Laboratory results taken from PMC5218480 (PLoS ONE, 2017).

Tested on: MV-4-11 cells
Assay: Gene expression microarray analysis (Affymetrix PrimeView) and GSEA
Format: cell-based, human
Set-up: RFU PODN (11730768_x_at) / Fold change /veh PODN (11730768_x_at) / RFU LINC00158 (11744669_a_at) / Fold change /veh LINC00158 (11744669_a_at) / RFU DUSP10 (11751237_a_at) / Fold change /veh DUSP10 (11751237_a_at) / RFU ID3 (11757404_x_at) / Fold change /veh ID3 (11757404_x_at) / RFU PLEKHG5 (11737974_s_at) / Fold change /veh PLEKHG5 (11737974_s_at) / RFU LRRC4B (11730491_at) / Fold change /veh LRRC4B (11730491_at) / RFU GIMAP4 (11747438_a_at) / Fold change /veh GIMAP4 (11747438_a_at) / RFU KRT8 (11758183_x_at) / Fold change /veh KRT8 (11758183_x_at) / RFU CNN1 (11734310_a_at) / Fold change /veh CNN1 (11734310_a_at) / RFU VPS37D (11726825_at) / Fold change /veh VPS37D (11726825_at) / RFU C10orf10 (11716522_x_at) / Fold change /veh C10orf10 (11716522_x_at) / RFU KIR2DL2 /// KIR2DL4 /// KIR2DL5A /// KIR2DL5B /// KIR2DS1 /// KIR2DS2 /// KIR2DS3 /// KIR2DS4 /// KIR3DL3 /// KIR3DL3 /// KIR3DS1 (11738374_at) / Fold change /veh KIR2DL2 /// KIR2DL4 /// KIR2DL5A /// KIR2DL5B /// KIR2DS1 /// KIR2DS2 /// KIR2DS3 /// KIR2DS4 /// KIR3DL3 /// KIR3DL3 /// KIR3DS1 (11738374_at) / RFU C1QL1 (11718748_at) / Fold change /veh C1QL1 (11718748_at) / RFU TMPRSS4 (11747572_a_at) / Fold change /veh TMPRSS4 (11747572_a_at) / RFU HAMP (11756126_x_at) / Fold change /veh HAMP (11756126_x_at) / RFU RNFT2 (11725882_a_at) / Fold change /veh RNFT2 (11725882_a_at) / RFU NR4A2 (11747474_a_at) / Fold change /veh NR4A2 (11747474_a_at) / RFU ABCC12 (11746883_a_at) / Fold change /veh ABCC12 (11746883_a_at) / RFU TMEM136 (11760407_x_at) / Fold change /veh TMEM136 (11760407_x_at) / RFU CLDN22 /// WWC2 (11732394_at) / Fold change /veh CLDN22 /// WWC2 (11732394_at) / RFU HLA-DPB1 (11760878_x_at) / Fold change /veh HLA-DPB1 (11760878_x_at) / RFU SPINT1 (11716480_a_at) / Fold change /veh SPINT1 (11716480_a_at) / RFU GAP43 (11754022_s_at) / Fold change /veh GAP43 (11754022_s_at) / RFU A4GNT (11735810_at) / Fold change /veh A4GNT (11735810_at) / RFU PRB3 (11715151_x_at) / Fold change /veh PRB3 (11715151_x_at) / RFU TUBB4B (11761932_at) / Fold change /veh TUBB4B (11761932_at) / RFU CAPN14 (11732068_a_at) / Fold change /veh CAPN14 (11732068_a_at) / RFU TMCC2 (11721928_a_at) / Fold change /veh TMCC2 (11721928_a_at) / RFU IRGQ (11745062_a_at) / Fold change /veh IRGQ (11745062_a_at) / RFU FAM174B (11720279_a_at) / Fold change /veh FAM174B (11720279_a_at) / RFU TMPRSS4 (11748680_a_at) / Fold change /veh TMPRSS4 (11748680_a_at) / RFU FAM212B (11763350_a_at) / Fold change /veh FAM212B (11763350_a_at) / RFU PLEKHG5 (11743358_a_at) / Fold change /veh PLEKHG5 (11743358_a_at) / RFU ZSCAN30 (11745921_a_at) / Fold change /veh ZSCAN30 (11745921_a_at) / RFU CMKLR1 (11741424_a_at) / Fold change /veh CMKLR1 (11741424_a_at) / RFU LOC101060620 /// MAPK8IP1 (11723275_at) / Fold change /veh LOC101060620 /// MAPK8IP1 (11723275_at) / RFU SPTSSB (11747773_x_at) / Fold change /veh SPTSSB (11747773_x_at) / RFU PRSS12 (11739890_at) / Fold change /veh PRSS12 (11739890_at) / RFU BIN1 (11741810_x_at) / Fold change /veh BIN1 (11741810_x_at) / RFU WNT11 (11732464_a_at) / Fold change /veh WNT11 (11732464_a_at) / RFU C10orf10 (11716521_a_at) / Fold change /veh C10orf10 (11716521_a_at) / RFU C5orf56 (11738089_at) / Fold change /veh C5orf56 (11738089_at) / RFU CYB561 (11721691_x_at) / Fold change /veh CYB561 (11721691_x_at) / RFU ANKRD19P (11752326_a_at) / Fold change /veh ANKRD19P (11752326_a_at) / RFU OR2T12 /// OR2T33 /// OR2T8 (11738714_s_at) / Fold change /veh OR2T12 /// OR2T33 /// OR2T8 (11738714_s_at) / RFU VCAN (11748164_a_at) / Fold change /veh VCAN (11748164_a_at) / RFU JSRP1 (11732532_at) / Fold change /veh JSRP1 (11732532_at) / RFU KRTAP10-11 (11738290_x_at) / Fold change /veh KRTAP10-11 (11738290_x_at) / RFU MYO3A (11730013_a_at) / Fold change /veh MYO3A (11730013_a_at) / RFU EBF3 (11725865_a_at) / Fold change /veh EBF3 (11725865_a_at) / RFU CAMK2N1 (11719241_x_at) / Fold change /veh CAMK2N1 (11719241_x_at) / RFU C5orf56 (11738088_a_at) / Fold change /veh C5orf56 (11738088_a_at) / RFU OLFML3 (11715873_a_at) / Fold change /veh OLFML3 (11715873_a_at) / RFU LOC100653217 /// NTM (11731650_a_at) / Fold change /veh LOC100653217 /// NTM (11731650_a_at) / RFU MAPK11 (11762145_a_at) / Fold change /veh MAPK11 (11762145_a_at) / RFU FIZ1 (11724087_x_at) / Fold change /veh FIZ1 (11724087_x_at) / RFU OASL (11726364_x_at) / Fold change /veh OASL (11726364_x_at) / RFU SOX15 (11748057_x_at) / Fold change /veh SOX15 (11748057_x_at) / RFU CD79A (11719716_a_at) / Fold change /veh CD79A (11719716_a_at) / RFU HIST1H1D (11736915_at) / Fold change /veh HIST1H1D (11736915_at) / RFU CASKIN2 (11723855_a_at) / Fold change /veh CASKIN2 (11723855_a_at) / RFU LOC730098 (11760151_x_at) / Fold change /veh LOC730098 (11760151_x_at) / RFU OR4N2 (11742367_at) / Fold change /veh OR4N2 (11742367_at) / RFU PRRT2 (11749266_a_at) / Fold change /veh PRRT2 (11749266_a_at) / RFU SNX32 (11753110_a_at) / Fold change /veh SNX32 (11753110_a_at) / RFU CDHR5 (11726645_a_at) / Fold change /veh CDHR5 (11726645_a_at) / RFU RCAN1 (11760418_a_at) / Fold change /veh RCAN1 (11760418_a_at) / RFU FAM167A (11723789_a_at) / Fold change /veh FAM167A (11723789_a_at) / RFU FAM26E (11764081_at) / Fold change /veh FAM26E (11764081_at) / RFU ISYNA1 (11749810_s_at) / Fold change /veh ISYNA1 (11749810_s_at) / RFU ACY1 (11761880_at) / Fold change /veh ACY1 (11761880_at) / RFU 11764098_at / Fold change /veh 11764098_at / RFU SAMD14 (11745864_x_at) / Fold change /veh SAMD14 (11745864_x_at) / RFU NPB (11741838_a_at) / Fold change /veh NPB (11741838_a_at) / RFU TMPRSS6 (11731388_a_at) / Fold change /veh TMPRSS6 (11731388_a_at) / RFU KRTAP10-2 (11738614_at) / Fold change /veh KRTAP10-2 (11738614_at) / RFU ARHGAP8 /// PRR5-ARHGAP8 (11727945_x_at) / Fold change /veh ARHGAP8 /// PRR5-ARHGAP8 (11727945_x_at) / RFU KRTAP5-7 /// NADSYN1 (11734609_at) / Fold change /veh KRTAP5-7 /// NADSYN1 (11734609_at) / RFU RASL12 (11751679_a_at) / Fold change /veh RASL12 (11751679_a_at) / RFU CDKN2B (11736163_a_at) / Fold change /veh CDKN2B (11736163_a_at) / RFU PRF1 (11729649_at) / Fold change /veh PRF1 (11729649_at) / RFU, ZNF638 /// ZNF638-IT1 / Fold change vs veh, ZNF638 /// ZNF638-IT1 / RFU, PANK3 / Fold change vs veh, PANK3 / RFU, SH3YL1 / Fold change vs veh, SH3YL1 / RFU, ZEB2 / Fold change vs veh, ZEB2 / RFU, NRIP1 / Fold change vs veh, NRIP1 / RFU, PTTG1IP / Fold change vs veh, PTTG1IP / RFU, CAPN2 / Fold change vs veh, CAPN2 / RFU, MED14 / Fold change vs veh, MED14 / RFU, SNORA58 / Fold change vs veh, SNORA58 / RFU, C1orf63 / Fold change vs veh, C1orf63 / RFU, LRRFIP1 / Fold change vs veh, LRRFIP1 / RFU, NDUFAF7 / Fold change vs veh, NDUFAF7 / RFU, SLC12A2 / Fold change vs veh, SLC12A2 / RFU, IBTK / Fold change vs veh, IBTK / RFU, ESF1 / Fold change vs veh, ESF1 / Fold change vs veh, TMEM50B / RFU, TAOK1 / Fold change vs veh, TAOK1 / RFU, ACBD3 / Fold change vs veh, ACBD3 / RFU, TMA16 / Fold change vs veh, TMA16 / RFU, RWDD3 / Fold change vs veh, RWDD3 / RFU, BCAT1 / Fold change vs veh, BCAT1 / RFU, EDEM3 / Fold change vs veh, EDEM3 / RFU, TMEM33 / Fold change vs veh, TMEM33 / RFU, WDR75 / Fold change vs veh, WDR75 / RFU, AHCTF1 / Fold change vs veh, AHCTF1 / RFU, TFRC / Fold change vs veh, TFRC / RFU, ZDHHC17 / Fold change vs veh, ZDHHC17 / RFU, NOM1 / Fold change vs veh, NOM1 / RFU, ARL8B / Fold change vs veh, ARL8B / RFU, ZBTB11 / Fold change vs veh, ZBTB11 / RFU, TAMM41 / Fold change vs veh, TAMM41 / RFU, KIAA1704 /// LOC100996395 / Fold change vs veh, KIAA1704 /// LOC100996395 / RFU, ING1 / Fold change vs veh, ING1 / RFU, TRMT61B / Fold change vs veh, TRMT61B / RFU, FUBP3 / Fold change vs veh, FUBP3 / RFU, TP53 / Fold change vs veh, TP53 / RFU, TNKS2 / Fold change vs veh, TNKS2 / RFU, ZFP14 / Fold change vs veh, ZFP14 / RFU, ACTR2 / Fold change vs veh, ACTR2 / RFU, PPP3R1 / Fold change vs veh, PPP3R1 / RFU, PIK3R1 / Fold change vs veh, PIK3R1 / RFU, HNRNPA1 / Fold change vs veh, HNRNPA1 / RFU, RNF170 / Fold change vs veh, RNF170 / RFU, ZNF28 / Fold change vs veh, ZNF28 / RFU, RNGTT / Fold change vs veh, RNGTT / RFU, OGT / Fold change vs veh, OGT / RFU, BRD1 / Fold change vs veh, BRD1 / RFU, MARS / Fold change vs veh, MARS / RFU, ZNF655 / Fold change vs veh, ZNF655 / RFU, FAHD1 / Fold change vs veh, FAHD1 / RFU, BDP1 / Fold change vs veh, BDP1 / RFU, LRRCC1 / Fold change vs veh, LRRCC1 / RFU, ARID1A / Fold change vs veh, ARID1A / RFU, ZNF146 / Fold change vs veh, ZNF146 / RFU, ZNF330 / Fold change vs veh, ZNF330 / RFU, GPN3 / Fold change vs veh, GPN3 / RFU, C9orf123 / Fold change vs veh, C9orf123 / RFU, N4BP2L2 / Fold change vs veh, N4BP2L2 / RFU, ARFIP1 / Fold change vs veh, ARFIP1 / RFU, FAM179B / Fold change vs veh, FAM179B / RFU, BCL10 / Fold change vs veh, BCL10 / RFU, UHRF1BP1L / Fold change vs veh, UHRF1BP1L / RFU, BET1 / Fold change vs veh, BET1 / RFU, CNOT2 / Fold change vs veh, CNOT2 / RFU, ZNF268 / Fold change vs veh, ZNF268 / Fold change vs veh, ZNF507 / RFU, DGCR2 / Fold change vs veh, DGCR2 / RFU, WDSUB1 / Fold change vs veh, WDSUB1 / Fold change vs veh, HSP90B1 /// MIR3652 / RFU, ADSS / Fold change vs veh, ADSS / RFU, GK / Fold change vs veh, GK / RFU, ZNF148 / Fold change vs veh, ZNF148 / RFU, TAF9 / Fold change vs veh, TAF9 / RFU, SLC1A5 / Fold change vs veh, SLC1A5 / RFU, SLMO2 / Fold change vs veh, SLMO2 / RFU, ABCC4 / Fold change vs veh, ABCC4 / RFU, LOC101060439 /// RAP1B / Fold change vs veh, LOC101060439 /// RAP1B / RFU, RFX7 / Fold change vs veh, RFX7 / RFU, GTPBP10 / Fold change vs veh, GTPBP10 / RFU, CNEP1R1 / Fold change vs veh, CNEP1R1 / RFU, BIVM-ERCC5 /// ERCC5 / Fold change vs veh, BIVM-ERCC5 /// ERCC5 / RFU, ILF3 / Fold change vs veh, ILF3 / RFU 11762660_at / Fold change /veh 11762660_at / RFU VCAN (11757783_s_at) / Fold change /veh VCAN (11757783_s_at) / RFU DDX43 (11728927_at) / Fold change /veh DDX43 (11728927_at) / RFU KRT8 (11758188_x_at) / Fold change /veh KRT8 (11758188_x_at) / RFU NKD1 (11759106_at) / Fold change /veh NKD1 (11759106_at) / RFU SRD5A1 (11742802_a_at) / Fold change /veh SRD5A1 (11742802_a_at) / RFU TPSAB1 /// TPSB2 (11721975_s_at) / Fold change /veh TPSAB1 /// TPSB2 (11721975_s_at) / RFU GSTM3 (11746129_a_at) / Fold change /veh GSTM3 (11746129_a_at) / RFU IL23R (11737362_x_at) / Fold change /veh IL23R (11737362_x_at) / RFU TMEM51 (11727254_a_at) / Fold change /veh TMEM51 (11727254_a_at) / RFU PIWIL2 (11732686_x_at) / Fold change /veh PIWIL2 (11732686_x_at) / RFU ORM1 (11744905_x_at) / Fold change /veh ORM1 (11744905_x_at) / RFU CCDC152 (11743942_at) / Fold change /veh CCDC152 (11743942_at) / RFU ECM1 (11717891_a_at) / Fold change /veh ECM1 (11717891_a_at) / RFU IL23R (11748794_a_at) / Fold change /veh IL23R (11748794_a_at) / RFU TNFAIP8L3 (11732012_x_at) / Fold change /veh TNFAIP8L3 (11732012_x_at) / RFU MBOAT4 (11741988_at) / Fold change /veh MBOAT4 (11741988_at) / RFU 11764193_at / Fold change /veh 11764193_at / RFU TMEM53 (11763286_at) / Fold change /veh TMEM53 (11763286_at) / RFU MAGEB2 (11727129_at) / Fold change /veh MAGEB2 (11727129_at) / RFU TMEM200A (11744735_a_at) / Fold change /veh TMEM200A (11744735_a_at) / RFU CCDC152 (11751479_a_at) / Fold change /veh CCDC152 (11751479_a_at) / RFU FAM211A (11726209_a_at) / Fold change /veh FAM211A (11726209_a_at) / RFU RGS16 (11746705_a_at) / Fold change /veh RGS16 (11746705_a_at) / RFU VCAN (11755009_s_at) / Fold change /veh VCAN (11755009_s_at) / RFU RHOB (11743442_s_at) / Fold change /veh RHOB (11743442_s_at) / RFU RGS16 (11720943_a_at) / Fold change /veh RGS16 (11720943_a_at) / RFU RGS16 (11720944_at) / Fold change /veh RGS16 (11720944_at) / RFU, VPS4B / Fold change vs veh, VPS4B / RFU, CREB1 / Fold change vs veh, CREB1 / RFU, DNAJC13 / Fold change vs veh, DNAJC13 / RFU, GNAQ / Fold change vs veh, GNAQ / RFU, CDK5R1 / Fold change vs veh, CDK5R1 / RFU, ZRANB3 / Fold change vs veh, ZRANB3 / RFU, CUL4A / Fold change vs veh, CUL4A / RFU, CCNY / Fold change vs veh, CCNY / RFU, UFL1 / Fold change vs veh, UFL1 / RFU, COG3 / Fold change vs veh, COG3 / RFU, DIAPH2 / Fold change vs veh, DIAPH2 / RFU, SKA2 / Fold change vs veh, SKA2 / RFU, AFF3 / Fold change vs veh, AFF3 / RFU, LMF1 / Fold change vs veh, LMF1 / RFU, IPO11 / Fold change vs veh, IPO11 / RFU, DFFB / Fold change vs veh, DFFB / RFU, FOXP1 / Fold change vs veh, FOXP1 / RFU, CARD8 / Fold change vs veh, CARD8 / RFU, STRN3 / Fold change vs veh, STRN3 / RFU, ADK / Fold change vs veh, ADK / RFU, RASSF2 / Fold change vs veh, RASSF2 / RFU, WIPF1 / Fold change vs veh, WIPF1 / RFU, LARP1B / Fold change vs veh, LARP1B / RFU, RASA1 / Fold change vs veh, RASA1 / RFU, RB1 / Fold change vs veh, RB1 / RFU, PPFIA1 / Fold change vs veh, PPFIA1 / RFU, MAT2A / Fold change vs veh, MAT2A / RFU, CCT5 / Fold change vs veh, CCT5 / RFU, WDR92 / Fold change vs veh, WDR92 / RFU, CUX1 / Fold change vs veh, CUX1 / RFU, TTC7A / Fold change vs veh, TTC7A / RFU, TMEM135 / Fold change vs veh, TMEM135 / RFU, DEPTOR / Fold change vs veh, DEPTOR / RFU, CPM / Fold change vs veh, CPM / RFU, DNAJB6 / Fold change vs veh, DNAJB6 / RFU, CACNA2D3 / Fold change vs veh, CACNA2D3 / RFU, DTX4 / Fold change vs veh, DTX4 / RFU, TFCP2 / Fold change vs veh, TFCP2 / RFU, GMCL1 /// GMCL1P1 / Fold change vs veh, GMCL1 /// GMCL1P1 / RFU, AEBP2 / Fold change vs veh, AEBP2 / RFU, SNHG1 /// SNORD22 /// SNORD25 /// SNORD26 /// SNORD27 /// SNORD28 /// SNORD29 /// SNORD31 / Fold change vs veh, SNHG1 /// SNORD22 /// SNORD25 /// SNORD26 /// SNORD27 /// SNORD28 /// SNORD29 /// SNORD31 / Fold change (Aza/veh), C12orf56 (ProbeSet 11735607_a_at) / Fold change (ACY-1035/veh), C12orf56 (ProbeSet 11735607_a_at) / Fold change (Aza/veh), FGFR1OP (ProbeSet 11751329_s_at) / Fold change (ACY-1035/veh), FGFR1OP (ProbeSet 11751329_s_at) / Fold change (Aza/veh), VPS36 (ProbeSet 11739960_a_at) / Fold change (ACY-1035/veh), VPS36 (ProbeSet 11739960_a_at) / RFU SYPL1 (11715823_x_at) / Fold change /veh SYPL1 (11715823_x_at) / RFU IGFBP7 (11715501_s_at) / Fold change /veh IGFBP7 (11715501_s_at) / RFU REEP3 (11722064_at) / Fold change /veh REEP3 (11722064_at) / RFU IGLL1 (11728026_x_at) / Fold change /veh IGLL1 (11728026_x_at): dose or concentration left out as unconfirmed
Settings: ProbeSet 11749781_s_at; LIST B

## Nc1ncn([C@@H]2O[C@H](CO)[C@@H](O)[C@H]2O)c(=O)n1 [azacitidine]
  Fold change vs veh, BCAT1: 0.85
